Data taken from US6809077B2, “Cyclosporin analogs for the treatment of autoimmune diseases” (Enanta Pharmaceuticals, Inc., priority 2001, dated 2004).

Key:
[1] = test system: NFAT proteins (pNFAT-Luc luciferase) in Jurkat cells; experiment: NFAT reporter gene assay, pNFAT-Luc plasmid in Jurkat cells; assay type: cell-based, human; conditions: Jurkat cells transfected with pNFAT-Luc, treated with 60 ng/ml of PMA and 1 μg/ml of inomycin in combination
Excerpt: (§1) NFAT activation follows precisely the activation of calcineurin by increased free calcium levels in the cytoplasm. Researchers from diverse fields are interested in the NFAT family of transcription factors, which are potential targets for newer and safer immunosuppressive drugs. In addition, the activation of NFAT proteins involves various cellular signal transduction pathways, including calcium mobilization and mitogen-activated protein kinase (MAP kinase) pathways linked to T-cell receptors and Ras1. To assist researchers probing the activity of NFAT proteins, Stratagene has developed a PathDetect cis-reporter plasmid, the pNFAT-Luc reporter plasmid (Stratagene, Inc. catalog #219094), containing the NFAT binding site from the human IL-2 gene.2,7-9. The NEAT cis-reporting system includes the transfection-ready pNFAT-Luc reporter plasmid and the pCIS-CK negative control plasmid.
(§2) The backbone of the 5749-base-pair pNFAT-Luc plasmid is the pFR-Luc reporter plasmid of the aforementioned PathDetect trans-reporting system. […]
(§3) Cyclosporin inhibits the activity of calcineurin, a protein phosphatase regulated by intracellular calcium mobilization. […] The inhibition of luciferase expression from pNFAT-Luc in the present model, in both Jurkat and CHO cells induced by PMA and ionomycin, was monitored for cyclosporin (as a positive control) and the cyclosporin analogs of the present invention.

[2] = test system: NFAT proteins (pNFAT-Luc luciferase) in cells transfected with pNFAT-Luc; experiment: NFAT reporter gene assay, cells transfected with pNFAT-Luc, single stimulus; assay type: cell-based; conditions: treated with either PMA or onomycin alone
Excerpt: as §1
The backbone of the 5749-base-pair pNFAT-Luc plasmid is the pFR-Luc reporter plasmid of the aforementioned PathDetect trans-reporting system. To this backbone, the GAL4 binding element was replaced with four direct repeats of the NFAT binding sequence (−286 to −257) from the IL-2 gene promoter, the most studied and widely used NFAT binding sequence. […]

[3] = test system: NFAT proteins (pNFAT-Luc luciferase) in Chinese hamster ovary cells (CHO cells); experiment: NFAT reporter gene assay, pNFAT-Luc plasmid in CHO cells; assay type: cell-based; conditions: CHO cells transfected with pNFAT-Luc, treated with 60 ng/ml of PMA and 1 μg/ml of inomycin in combination
Excerpt: as §1, §2, §3

What does the source list for CCCCCCCCCCCCCC(=O)O[C@@H]1[C@@H](C)[C@@]2(O)[C@@H](C=C(CO)C[C@]3(O)C(=O)C(C)=C[C@@H]23)[C@@H]2C(C)(C)[C@]12OC(C)=O [PMA]?
luciferase activity increased [1]: 13 fold; increase in luciferase activity [2]: did not show a significant increase; luciferase activity increased [3]: 16 fold

How did the “increase in luciferase activity” value [2] turn out when C[C@H](CCC(=O)O)C[C@H](C)C[C@H](C)C(=O)/C=C(\O)[C@H](C)C[C@H](C)C/C=C/[C@@H](C)[C@@H](O)[C@@H](C)[C@@H](O)C[C@@H]1CC[C@@](C)([C@H]2CC[C@@](C)([C@@H](C)O)O2)O1 [onomycin] was run?
Its value is “did not show a significant increase”.
